Assay results from US20220062240A1, “METHODS OF TREATING CANCER USING A CLK INHIBITOR” (BioSplice Therapeutics, Inc., priority 2018, published 2022).
Like-named read-outs stand apart in the source and are kept apart here.

Columns and labels:
[1] = test system: all 50 cell lines; assay: CellTiter-Glo Viability Assay, average across all cell lines; type: cell-based; settings: Homo sapiens; across all 50 cell lines; read-out: average EC50 for inhibition of cancer cell proliferation
Procedure, shortened: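 Cancer cell lines of several tumour types plated at 300-3,000 cells/well and exposed to compound in duplicate for four days at 37° C, 5% CO2, with DMSO-treated controls. Viability read by CellTiter-Glo luminescence (ATP content); EC50 derived from dose-response curves.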

[2] = test system: liver cancer (3 cell lines); assay: CellTiter-Glo Viability Assay, liver cancer; type: cell-based; settings: Homo sapiens, inhibition of cancer cell proliferation
[3] = test system: lung cancer (4 cell lines); assay: CellTiter-Glo Viability Assay, lung cancer; type: cell-based; settings: Homo sapiens, inhibition of cancer cell proliferation
[4] = target: T1, CLK2 (Homo sapiens, UniProt P49760); assay: CLK2 kinase activity assay (Z-lyte, Ser/Thr 6 peptide); type: biochemical; settings: recombinant CLK2 kinase, ATP 60 μM; read-out: EC50
T1 construct: purchased Thermo Fisher (Life Technologies), Z'-LYTE Kinase Assay Kits
Method: All reactions were performed in duplicate.

[5] = test system: ovarian cancer (4 cell lines); assay: CellTiter-Glo Viability Assay, ovarian cancer; type: cell-based; settings: Homo sapiens, inhibition of cancer cell proliferation
[6] = test system: ZR-75-1; assay: CellTiter-Glo Viability Assay, breast cancer; type: cell-based; settings: Homo sapiens, 96 h; ZR-75-1, breast cancer, four days; read-out: EC50
[7] = test system: BT-549; assay: CellTiter-Glo Viability Assay, breast cancer; type: cell-based; settings: Homo sapiens, 96 h; BT-549, breast cancer, four days; read-out: EC50
[8] = test system: CAMA1; assay: CellTiter-Glo Viability Assay, breast cancer; type: cell-based; settings: Homo sapiens, CAMA-1, 96 h; CAMA1, breast cancer, four days; read-out: EC50
[9] = test system: T47D; assay: CellTiter-Glo Viability Assay, breast cancer; type: cell-based; settings: Homo sapiens, 96 h, breast cancer, four days, read-out: EC50
[10] = test system: DU4475; assay: CellTiter-Glo Viability Assay, breast cancer; type: cell-based; settings: Homo sapiens, DU-4475, 96 h; DU4475, breast cancer, four days; read-out: EC50
[11] = test system: MCF7; assay: CellTiter-Glo Viability Assay, breast cancer; type: cell-based; settings: Homo sapiens, 96 h; MCF7, breast cancer, four days; read-out: EC50
[12] = test system: MDA-MB-231-Luc; assay: CellTiter-Glo Viability Assay, breast cancer; type: cell-based; settings: Homo sapiens, 96 h; MDA-MB-231-Luc, breast cancer, four days; read-out: EC50
[13] = test system: HCC1599; assay: CellTiter-Glo Viability Assay, breast cancer; type: cell-based; settings: Homo sapiens, 96 h; HCC1599, breast cancer, four days; read-out: EC50
[14] = test system: haematopoietic & lymphoid tumors (13 cell lines); assay: CellTiter-Glo Viability Assay, haematopoietic & lymphoid tumors; type: cell-based; settings: Homo sapiens, inhibition of cancer cell proliferation
[15] = test system: prostate cancer (5 cell lines); assay: CellTiter-Glo Viability Assay, prostate cancer; type: cell-based; settings: Homo sapiens
[16] = test system: colorectal cancer (6 cell lines); assay: CellTiter-Glo Viability Assay, colorectal cancer; type: cell-based; settings: Homo sapiens, inhibition of cancer cell proliferation
[17] = test system: pancreatic cancer (8 cell lines); assay: CellTiter-Glo Viability Assay, pancreatic cancer; type: cell-based; settings: Homo sapiens, inhibition of cancer cell proliferation
[18] = SNU-398, SNU398 cell line, read-out: Liver cancer, EC50 SNU398
[19] = HEPG2 cell line, read-out: Liver cancer, EC50 HEPG2
[20] = PLC/PRF/5 cell line, read-out: Liver cancer, EC50 PLC/PRF/5
[21] = A-427, A427 cell line, read-out: Lung cancer, EC50 (μM) A427
[22] = HCC78, HCC-78 cell line, read-out: Lung cancer, EC50 (μM) HCC-78
[23] = NCI-H460 cell line, read-out: Lung cancer, EC50 (μM) NCI-H460
[24] = NCI-H522 cell line, read-out: Lung cancer, EC50 (μM) NCI-H522
[25] = PA-1, PA1 cell line, read-out: Ovarian cancer, EC50 (μM) PA1
[26] = TOV112D, TOV-112D cell line, read-out: Ovarian cancer, EC50 (μM) TOV-112D
[27] = OV-90 cell line, read-out: Ovarian cancer, EC50 (μM) OV-90
[28] = OVCAR-3 cell line, read-out: Ovarian cancer, EC50 (μM) OVCAR-3
[29] = DND41, DND-41 cell line, read-out: Haematopoietic & Lymphoid tumors, EC50 (μM) DND-41
[30] = MV4-11, MV-4-11 cell line, read-out: Haematopoietic & Lymphoid tumors, EC50 (μM) MV-4-11
[31] = Rec1, REC-1 cell line, read-out: Haematopoietic & Lymphoid tumors, EC50 (μM) REC-1
[32] = SU-DHL-4, SUDHL4 cell line, read-out: Haematopoietic & Lymphoid tumors, EC50 (μM) SUDHL4
[33] = HL-60 cell line, read-out: Haematopoietic & Lymphoid tumors, EC50 (μM) HL-60
[34] = JM1 cell line, read-out: Haematopoietic & Lymphoid tumors, EC50 (μM) JM1
[35] = JURKAT, Clone E6-1 cell line, read-out: Haematopoietic & Lymphoid tumors, EC50 (μM) JURKAT, Clone E6-1
[36] = JeKo-1 cell line, read-out: Haematopoietic & Lymphoid tumors, EC50 (μM) JeKo-1
[37] = KASUMI-1 cell line, read-out: Haematopoietic & Lymphoid tumors, EC50 (μM) KASUMI-1
[38] = Loucy cell line, read-out: Haematopoietic & Lymphoid tumors, EC50 (μM) Loucy
[39] = MOLT-4 cell line, read-out: Haematopoietic & Lymphoid tumors, EC50 (μM) MOLT-4
[40] = TF-1 cell line, read-out: Haematopoietic & Lymphoid tumors, EC50 (μM) TF-1
[41] = TOLEDO cell line, read-out: Haematopoietic & Lymphoid tumors, EC50 (μM) TOLEDO
[42] = DU-145, read-out: Prostate cancer EC50 Du-145
[43] = PC-3, PC3 cell line, inhibition of cancer cell proliferation, read-out: Prostate cancer EC50 PC3
[44] = 22Rv1 cell line, inhibition of cancer cell proliferation, read-out: Prostate cancer EC50 22Rv1
[45] = LNCap clone FGC cell line, inhibition of cancer cell proliferation, read-out: Prostate cancer EC50 LNCap clone FGC
[46] = VCaP (Sigma) cell line, inhibition of cancer cell proliferation, read-out: Prostate cancer EC50 VCaP (Sigma)
[47] = HCT-116, HCT116 cell line, read-out: Colorectal cancer, EC50 (μM) HCT116
[48] = HT-29, HT29 cell line, read-out: Colorectal cancer, EC50 (μM) HT29
[49] = SW-620, SW620 cell line, read-out: Colorectal cancer, EC50 (μM) SW620
[50] = DLD-1 cell line, read-out: Colorectal cancer, EC50 (μM) DLD-1
[51] = SW48 cell line, read-out: Colorectal cancer, EC50 (μM) SW48
[52] = SW480 cell line, read-out: Colorectal cancer, EC50 (μM) SW480
[53] = BXPC-3, BxPC3 cell line, read-out: Pancreatic cancer, EC50 BxPC3
[54] = CAPAN-1, Capan1 cell line, read-out: Pancreatic cancer, EC50 Capan1
[55] = Capan-2, Capan2 cell line, read-out: Pancreatic cancer, EC50 Capan2
[56] = MIA PaCa-2 cell line, read-out: Pancreatic cancer, EC50 MIA PaCa-2
[57] = PANC 05.04 cell line, read-out: Pancreatic cancer, EC50 PANC 05.04
[58] = PANC-1 cell line, read-out: Pancreatic cancer, EC50 PANC-1
[59] = UPAFII cell line, read-out: Pancreatic cancer, EC50 UPAFII

T1 sequence (P49760 whole entry): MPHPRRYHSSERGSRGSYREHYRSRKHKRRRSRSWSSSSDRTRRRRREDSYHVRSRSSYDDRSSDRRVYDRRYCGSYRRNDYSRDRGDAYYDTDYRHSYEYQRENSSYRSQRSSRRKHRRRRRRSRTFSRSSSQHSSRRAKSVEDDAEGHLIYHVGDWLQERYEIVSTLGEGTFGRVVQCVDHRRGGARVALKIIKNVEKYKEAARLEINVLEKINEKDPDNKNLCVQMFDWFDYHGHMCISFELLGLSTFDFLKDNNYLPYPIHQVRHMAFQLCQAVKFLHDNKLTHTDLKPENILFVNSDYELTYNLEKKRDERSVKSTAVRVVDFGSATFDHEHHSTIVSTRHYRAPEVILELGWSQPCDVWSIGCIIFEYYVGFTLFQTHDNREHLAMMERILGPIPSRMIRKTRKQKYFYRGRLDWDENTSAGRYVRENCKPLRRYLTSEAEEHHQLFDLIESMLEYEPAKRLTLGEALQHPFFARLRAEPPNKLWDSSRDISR

CN1CCC2(CC1)CN(c1cc(C(=O)Nc3cc4cc(-c5cnn(C)c5CO)ccc4cn3)ccn1)C2 [Compound 76] gave an EC50 [1] of 922 nM, an EC50 [2, 18] of 120 nM and an EC50 [2, 19] of 654 nM. It also gave an EC50 [2, 20] of 2550 nM, an EC50 [3, 21] of 0.481 µM and an EC50 [3, 22] of 1.07 µM. It also gave an EC50 [3, 23] of 2.05 µM, an EC50 [3, 24] of 0.246 µM and an EC50 [4] of 2.6 nM. For the same compound, the EC50 [5, 25] was 0.725 µM, the EC50 [5, 26] was 0.277 µM and the EC50 [5, 27] was 1.07 µM. It also gave an EC50 [5, 28] of 0.194 µM, an EC50 [6] of 950 nM and an EC50 [7] of 1050 nM. The EC50 [8] was 640 nM, the EC50 [9] was 1220 nM and the EC50 [10] was 468 nM. The EC50 [11] was 3360 nM, the EC50 [12] was 798 nM and the EC50 [13] was 673 nM. The EC50 [14, 29] was 0.547 µM, the EC50 [14, 30] was 0.123 µM and the EC50 [14, 31] was 1.77 µM. The EC50 [14, 32] was 0.533 µM, the EC50 [14, 33] was 1.63 µM and the EC50 [14, 34] was 0.167 µM. It also gave an EC50 [14, 35] of 1.33 µM, an EC50 [14, 36] of 0.142 µM and an EC50 [14, 37] of 0.547 µM. For the same compound, the EC50 [14, 38] was 0.385 µM, the EC50 [14, 39] was 0.734 µM and the EC50 [14, 40] was 2.39 µM. The EC50 [14, 41] was 0.373 µM, the EC50 [15, 42] was 941 nM and the EC50 [15, 43] was 546 nM. It also gave an EC50 [15, 44] of 397 nM, an EC50 [15, 45] of 1380 nM and an EC50 [15, 46] of 1700 nM. The EC50 [16, 47] was 0.455 µM, the EC50 [16, 48] was 1.41 µM and the EC50 [16, 49] was 0.241 µM. For the same compound, the EC50 [16, 50] was 1.53 µM, the EC50 [16, 51] was 0.16 µM and the EC50 [16, 52] was 0.384 µM. For the same compound, the EC50 [17, 53] was 2070 nM, the EC50 [17, 54] was 810 nM and the EC50 [17, 55] was 1190 nM. It also gave an EC50 [17, 56] of 219 nM, an EC50 [17, 57] of 1060 nM and an EC50 [17, 58] of 1660 nM. The EC50 [17, 59] was 635 nM.

CN1CCC(Oc2ccc(NC(=O)c3n[nH]cc3/C=C/c3cccnc3)cn2)CC1 [Compound 93] showed an EC50 [1] of 4530 nM, an EC50 [2, 18] of 2040 nM and an EC50 [2, 19] of 3620 nM. The EC50 [2, 20] was 9900 nM, the EC50 [3, 21] was 4.12 µM and the EC50 [3, 22] was > 10 µM. It also gave an EC50 [3, 23] of 5.17 µM, an EC50 [3, 24] of 1.42 µM and an EC50 [4] of 3.7 nM. For the same compound, the EC50 [5, 25] was 5.95 µM, the EC50 [5, 26] was 1.55 µM and the EC50 [5, 27] was > 10 µM. It also gave an EC50 [5, 28] of 2.54 µM, an EC50 [6] of 6790 nM and an EC50 [7] of 3760 nM. It also gave an EC50 [8] of 7760 nM, an EC50 [9] of 633 nM and an EC50 [10] of 1020 nM. For the same compound, the EC50 [11] was > 10000 nM, the EC50 [12] was 6790 nM and the EC50 [13] was 240 nM. For the same compound, the EC50 [14, 29] was 4.78 µM, the EC50 [14, 30] was 0.273 µM and the EC50 [14, 31] was 1.26 µM. It also gave an EC50 [14, 32] of 2.56 µM, an EC50 [14, 33] of 4.59 µM and an EC50 [14, 34] of 0.765 µM. The EC50 [14, 35] was 3.73 µM, the EC50 [14, 36] was 0.706 µM and the EC50 [14, 37] was 0.479 µM. It also gave an EC50 [14, 38] of 1.96 µM, an EC50 [14, 39] of 5.56 µM and an EC50 [14, 40] of 3.59 µM. For the same compound, the EC50 [14, 41] was 0.886 µM, the EC50 [15, 42] was 9090 nM and the EC50 [15, 43] was 9340 nM. It also gave an EC50 [15, 44] of 1060 nM, an EC50 [15, 45] of 8650 nM and an EC50 [15, 46] of 2020 nM. The EC50 [16, 47] was 1.88 µM, the EC50 [16, 48] was 5.48 µM and the EC50 [16, 49] was 1.36 µM. It also gave an EC50 [16, 50] of 1.35 µM, an EC50 [16, 51] of 0.577 µM and an EC50 [16, 52] of 3.5 µM. The EC50 [17, 53] was 9040 nM, the EC50 [17, 54] was > 10000 nM and the EC50 [17, 55] was > 10000 nM. For the same compound, the EC50 [17, 56] was 2020 nM, the EC50 [17, 57] was > 10000 nM and the EC50 [17, 58] was > 10000 nM. It also gave an EC50 [17, 59] of 6880 nM.
